Assay results taken from patent publication US20120046329A1, “MODULATORS OF NOD1 AND NOD2 SIGNALING, METHODS OF IDENTIFYING MODULATORS OF NOD1 AND NOD2 SIGNALING, AND USES THEREOF” (Sanford-Burnham Medical Research Institute, priority 2010, published 2012).
Where two headings read alike, the source gives them in different places.

T1: NOD1 (Homo sapiens, UniProt Q9Y239)
T1 sequence (Q9Y239 1-953): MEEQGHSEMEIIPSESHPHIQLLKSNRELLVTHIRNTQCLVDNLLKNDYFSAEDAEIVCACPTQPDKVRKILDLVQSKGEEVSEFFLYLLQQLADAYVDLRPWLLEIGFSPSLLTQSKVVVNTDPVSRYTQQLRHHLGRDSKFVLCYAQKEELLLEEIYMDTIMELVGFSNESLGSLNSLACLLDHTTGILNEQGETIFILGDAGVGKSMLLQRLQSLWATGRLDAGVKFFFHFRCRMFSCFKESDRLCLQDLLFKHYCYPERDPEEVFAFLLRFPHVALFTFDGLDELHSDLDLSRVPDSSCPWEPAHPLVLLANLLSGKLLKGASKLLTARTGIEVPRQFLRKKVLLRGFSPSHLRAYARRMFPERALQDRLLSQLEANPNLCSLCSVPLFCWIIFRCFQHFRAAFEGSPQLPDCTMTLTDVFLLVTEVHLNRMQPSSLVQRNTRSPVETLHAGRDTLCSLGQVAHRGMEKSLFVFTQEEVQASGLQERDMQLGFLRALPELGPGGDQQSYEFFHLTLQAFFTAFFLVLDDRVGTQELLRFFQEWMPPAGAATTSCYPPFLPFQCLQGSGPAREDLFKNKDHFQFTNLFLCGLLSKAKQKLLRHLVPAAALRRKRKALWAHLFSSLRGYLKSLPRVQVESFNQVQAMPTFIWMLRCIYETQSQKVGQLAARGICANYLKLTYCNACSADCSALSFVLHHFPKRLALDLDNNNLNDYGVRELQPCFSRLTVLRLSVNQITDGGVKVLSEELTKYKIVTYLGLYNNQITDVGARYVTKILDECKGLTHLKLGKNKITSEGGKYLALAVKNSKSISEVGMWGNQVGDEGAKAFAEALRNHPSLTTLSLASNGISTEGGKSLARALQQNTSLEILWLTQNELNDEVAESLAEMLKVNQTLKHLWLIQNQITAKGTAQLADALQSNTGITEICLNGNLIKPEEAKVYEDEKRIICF


How the values were obtained:
TNF-α induced NF-κB = experiment: TNF-α-induced NF-κB luciferase reporter counterscreen, HEK293T; type: cell-based, human; settings: Homo sapiens, HEK-293T
NOD1 = molecular target: T1, NOD1; experiment: NOD1 NF-κB luciferase reporter assay, γ-tri-DAP-stimulated HEK293T cells; settings: for Effect on NOD-driven NF-κB reporter gene activity: data not shown
NOD2 = NOD2 (Homo sapiens, UniProt Q9HC29); experiment: NOD2 NF-κB luciferase reporter assay, HEK293T cells over-expressing NOD2; type: cell-based; set-up: expressed in transfected cells; host or cells: HEK293T NF-κB-luciferase cells, lentiviral transduction, sorted by EGFP
XIAP/RIP2 interaction = molecular target: T2, XIAP/RIP2 interaction (Homo sapiens, UniProt P98170); experiment: GST-XIAP pull-down of FLAG-RIP2 in vitro; type: binding
T2 construct: made in house; FLAG-RIP2: transfected HEK293T lysate
Description: (A) Schematic representation of GFP-XIAP mutants. (B) Transfected HEK293T cells expressing FLAG-RIP2 together with GFP-XIAPWT, GFPXIAPE219R, GFP-XIAPH223V, GFP-XIAPE219R/H223V or GFP-control were lysed and subjected to immunoprecipitation using anti-FLAG antibody. Immunoprecipitates were analyzed by SDS/PAGE/immunoblotting using anti-FLAG and anti-GFP antibodies. Protein binding was quantified by densitometry analysis, measuring the integrated density value expressed as arbitrary units of the GFP-XIAP bands. Values are expressed as mean±SD of three independent experiments. […] Beads were analyzed by immunoblotting using anti-FLAG-HRP, anti-XIAP/anti-GST or anti-SMAC antibodies as indicated. An aliquot of lysates was also directly analyzed by immunoblotting (“input”).
In another set of experiments, for immunoprecipitation (IP), cells were lysed in IP buffer [20 mM iris pH 7.5, 135 mM NaCl, 1 mM EDTA or 1 mM EGTA (for binding assays involving NODS), 0.5% Nonidet P-40, 10% glycerol, 10 mM NaF, 1 mM DTT, 2 mM Na3VO4, 20 μM leupeptin, 1 mM PMSF, 20 mM N-ethylmaleimide, 0.5 μM iodoacetic acid, 1× protease inhibitor mix (Roche Applied Science)]. […] After incubation overnight bound immune complexes were washed four times in IP buffer, boiled in 2× Laemmli buffer and analyzed by SDS/PAGE and immunoblotted using various antibodies as specifically indicated. […]

[1] = TNF-α-stimulated NF-κB luciferase, HEK293T, read-out: TNF-α IC50

Chain of NOD2 (Q9HC29 whole entry): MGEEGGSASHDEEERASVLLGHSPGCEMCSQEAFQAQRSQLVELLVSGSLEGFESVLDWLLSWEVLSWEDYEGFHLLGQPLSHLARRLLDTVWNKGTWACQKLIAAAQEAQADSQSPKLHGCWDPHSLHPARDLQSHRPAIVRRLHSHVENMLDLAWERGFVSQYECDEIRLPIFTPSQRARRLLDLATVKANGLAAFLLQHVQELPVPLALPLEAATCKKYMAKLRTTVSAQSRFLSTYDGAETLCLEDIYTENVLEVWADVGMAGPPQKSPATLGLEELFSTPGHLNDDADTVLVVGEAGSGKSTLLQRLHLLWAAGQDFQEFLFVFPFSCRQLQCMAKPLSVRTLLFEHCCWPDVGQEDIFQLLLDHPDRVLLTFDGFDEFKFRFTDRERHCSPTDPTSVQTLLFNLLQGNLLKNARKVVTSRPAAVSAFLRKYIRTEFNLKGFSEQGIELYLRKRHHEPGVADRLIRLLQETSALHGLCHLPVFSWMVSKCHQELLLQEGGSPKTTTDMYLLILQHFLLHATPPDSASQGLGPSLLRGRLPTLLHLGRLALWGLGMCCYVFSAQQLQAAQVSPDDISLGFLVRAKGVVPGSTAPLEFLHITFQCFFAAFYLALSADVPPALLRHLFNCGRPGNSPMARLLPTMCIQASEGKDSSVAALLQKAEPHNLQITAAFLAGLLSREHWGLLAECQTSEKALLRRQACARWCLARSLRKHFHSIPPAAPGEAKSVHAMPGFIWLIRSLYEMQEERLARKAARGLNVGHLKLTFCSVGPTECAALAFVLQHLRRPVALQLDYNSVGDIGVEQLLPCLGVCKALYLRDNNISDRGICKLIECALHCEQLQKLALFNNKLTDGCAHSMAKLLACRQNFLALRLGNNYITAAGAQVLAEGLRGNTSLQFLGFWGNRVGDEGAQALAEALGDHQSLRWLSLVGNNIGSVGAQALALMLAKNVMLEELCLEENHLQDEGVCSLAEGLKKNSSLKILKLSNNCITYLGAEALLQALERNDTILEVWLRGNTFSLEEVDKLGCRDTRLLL
T2 sequence (P98170 whole entry): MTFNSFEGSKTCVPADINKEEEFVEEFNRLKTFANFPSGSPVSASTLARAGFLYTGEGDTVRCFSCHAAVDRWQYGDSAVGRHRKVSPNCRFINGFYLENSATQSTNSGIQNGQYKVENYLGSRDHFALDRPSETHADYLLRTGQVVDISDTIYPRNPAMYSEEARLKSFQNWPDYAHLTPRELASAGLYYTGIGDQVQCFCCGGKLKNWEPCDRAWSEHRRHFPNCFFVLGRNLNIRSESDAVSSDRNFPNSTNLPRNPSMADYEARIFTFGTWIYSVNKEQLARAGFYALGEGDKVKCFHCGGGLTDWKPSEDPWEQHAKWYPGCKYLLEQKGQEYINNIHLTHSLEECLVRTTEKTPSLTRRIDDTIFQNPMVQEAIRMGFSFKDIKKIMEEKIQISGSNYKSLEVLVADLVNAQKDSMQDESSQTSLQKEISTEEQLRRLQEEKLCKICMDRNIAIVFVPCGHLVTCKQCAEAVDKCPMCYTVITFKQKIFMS

| Molecule | IC50 (NOD2) [µM] | IC50 (NOD1) [µM] | IC50 (TNF-α induced NF-κB; [1]) [µM] | also measured |
| --- | --- | --- | --- | --- |
| Cc1ccc(S(=O)(=O)n2cnc3ccccc32)cc1 [Compound 6] |  |  |  | IC50 (TNF-α induced NF-κB; read-out: TNF-α IC50(μM)): > 20 µM |
| COC1=C2C[C@@H](C)C[C@H](OC)[C@H](O)[C@@H](C)/C=C(\C)[C@H](OC(N)=O)[C@@H](OC)/C=C\C=C(/C)C(=O)NC(=CC1=O)C2=O [geldanomycin, reference compound] |  |  |  | Effect on NOD-driven NF-κB reporter gene activity (NOD1): suppress |
| Nc1nc2ccccc2n1S(=O)(=O)c1ccc(OC(F)(F)F)cc1 [Compound 11] | > 20 |  | > 20 |  |
| COc1ccc(-c2ccc(S(=O)(=O)n3c(N)nc4ccccc43)cc2)cc1 [Compound 40] |  |  | 5.2 |  |
| CC(C)c1ccc(S(=O)(=O)n2c(N)nc3ccccc32)cc1 [Compound 12] | > 20 |  | > 20 |  |
| Cc1ccc(S(=O)(=O)n2c(N)nc3ccc(C(F)(F)F)cc32)cc1 [Compound 21] | 10 | 3.9 | 12.3 |  |
| Cc1ccc(S(=O)(=O)n2c(N)nc3ccc(F)cc32)cc1 [Compound 23] | > 25 | 6.2 | > 25 |  |
| Nc1nc2ccccc2n1S(=O)(=O)c1ccc2c(c1)CCC2 [Compound 17] | 0.6 | 0.8 | > 25 |  |
| C[n+]1cc2c3c(ccc2c2ccc4cc5c(cc4c21)OCO5)OCO3 [sanguinarine, reference compound] |  |  |  | inhibition at 4 µM (NOD1; HEK-293T, read-out: Luciferase inhibition, hit cut-off): ≥ 50% |
| Nc1nc2ccccc2n1S(=O)(=O)c1cccc(Br)c1 [Compound 31] |  | 3.5 |  | IC50 (TNF-α induced NF-κB; read-out: TNF-α IC50(μM)): > 100 µM |
| Nc1nc2ccccc2n1S(=O)(=O)c1ccc([N+](=O)[O-])cc1 [Compound 5] |  |  |  | IC50 (TNF-α induced NF-κB; read-out: TNF-α IC50(μM)): > 20 µM |
| Nc1nc2ccccc2n1S(=O)(=O)c1ccc(Cl)c(Cl)c1 [Compound 14] | > 20 |  | > 20 |  |
| Nc1nc2ccccc2n1S(=O)(=O)c1ccccc1 [Compound 4] |  |  |  | IC50 (TNF-α induced NF-κB; read-out: TNF-α IC50(μM)): > 20 µM |
| Nc1nc2ccccc2n1S(=O)(=O)c1ccc(F)cc1 [Compound 13] | > 20 |  | > 20 |  |
| Cc1ccc(S(=O)(=O)n2c(N)nc3cc(C(F)(F)F)ccc32)cc1 [Compound 20] | 4.7 | 1.6 | 2.3 |  |
| COc1ccc2c(c1)nc(N)n2S(=O)(=O)c1ccc(C)cc1 [Compound 24] | 3.1 | 1.9 | > 25 |  |
| Cc1ccc(S(=O)(=O)n2c(N)nc3cc(C)ccc32)cc1 [Compound 18] | 15 | 9.3 | > 25 |  |
| C=CCNC1=C2C[C@@H](C)C[C@H](OC)[C@H](O)[C@@H](C)/C=C(\C)[C@H](OC(N)=O)[C@@H](OC)C=C/C=C(\C)C(=O)NC(=CC1=O)C2=O [Compound 17-AGG, reference compound] |  |  |  | Effect on NOD-driven NF-κB reporter gene activity (NOD1): suppress |
| Cc1ccc(S(=O)(=O)n2c(N)nc3cc(F)ccc32)cc1 [Compound 22] | > 25 | 1.8 | > 25 |  |
| Nc1nc2ccccc2n1S(=O)(=O)c1cccs1 [Compound 16] | > 25 | 11 | 6.6 |  |
| CCOC(=O)c1ccc2nc(N)n(S(=O)(=O)c3ccc(C)cc3)c2c1 [Compound 25] | 7.6 | 3 | > 25 |  |
| Cc1ccc(S(=O)(=O)n2c(N)nc3c(N)cccc32)cc1 [Compound 26] | 12.8 | 17.5 | > 25 |  |
| SMAC protein: recombinant SMAC protein, dimeric, binds BIR2 and BIR3 domains of XIAP (protein, UniProt Q9NR28 22-239, looked up, His6 tag) Diablo IAP-binding …: LCVPVVANFKKRCFSELIRPWHKTVTIGFGVTLCAVPIAQKSEPHSLSSEALMRRAVSLVTDSTSTFLSQTTYALIEAITEYTKAVYTLTSLYRQYTSLLGKMNSEEEDEVWQVIIGARAEMTSKHQEYLKLETTWMTAVGLSEMAAEAAYQTGADQASITARNHIQLVKLQVEEVHQLSRKAETKLAEAQIEELRQKTQEEGEERAESEQEAYLRED |  |  |  | Effect on XIAP/RIP2 interaction in vitro (XIAP/RIP2 interaction): concentration-dependent inhibition |

More lines, main results first:

| IC50 (NOD2) [µM] | IC50 (NOD1) [µM] | Molecule | IC50 (TNF-α induced NF-κB; [1]) [µM] | also measured |
| --- | --- | --- | --- | --- |
|  | > 25 | Nc1nc2ccccc2n1S(=O)(=O)c1cccc(OC(F)(F)F)c1 [Compound 33] | > 100 |  |
|  | 1.5 | Nc1nc2ccccc2n1S(=O)(=O)c1ccc(-c2ccccc2)cc1 [Compound 39] |  | IC50 (TNF-α induced NF-κB; read-out: TNF-α IC50(μM)): 4.2 µM |
| > 25 | 12.1 | Cc1ccc(S(=O)(=O)n2c(NCCCO)nc3ccccc32)cc1 [Compound 28] | > 25 |  |
| 15.6 | 10.9 | Cc1ccc(S(=O)(=O)n2c(CNC=O)nc3ccccc32)cc1 [Compound 27] | 8.4 |  |
|  | 14.5 | COc1cccc(S(=O)(=O)n2c(N)nc3ccccc32)c1 [Compound 36] | > 100 |  |
|  | 1.3 | CCCc1cccc(S(=O)(=O)n2c(N)nc3ccccc32)c1 [Compound 34] | > 100 |  |
|  | 12.4 | Nc1nc2ccccc2n1S(=O)(=O)c1cccc(C(F)(F)F)c1 [Compound 32] | > 100 |  |
|  | 3.8 | Cc1cccc(S(=O)(=O)n2c(N)nc3ccccc32)c1 [Compound 29] | > 100 |  |
|  | 3.3 | CC(C)(C)c1cccc(S(=O)(=O)n2c(N)nc3ccccc32)c1 [Compound 35] | 15.6 |  |
|  | 2.2 | Nc1nc2ccccc2n1S(=O)(=O)c1cc(Cl)c(Cl)s1 [Compound 37] | 18.4 |  |
